Assay results reported in patent US20070020195A1, “Nasally administered appetite suppressants” (priority 2005, published 2007).
Several values for one entry are separate records, joined by “and”; a condition that tells them apart may be missing. Equal values may be shown once.

What was measured:
[1] = cited from earlier work
[2] = Dose-escalation food intake trial in obese subjects with Universal Eating Monitor (Examples 2-5); format: in vivo, human
[3] = Double-blind crossover food intake study, intranasal lidocaine vs saline before a fried chicken meal; format: in vivo, human; conditions: four subjects
Procedure: Three males and one female between 23 and 60 years of age with BMI's less than 25 kg/m2 participated in a study of food intake. The subjects presented to the food intake laboratory at noon after an overnight fast except for water from 9 pm the prior night on two occasions a week apart. They had 10 mg (0.5 cc) of lidocaine or 0.5 cc normal saline administered in each nostril 20 minutes before presentation of a meal consisting of fried chicken pieces and water. They were allowed to eat and drink as much or as little as they wished over a 20-minute period, and there were more chicken pieces than they could reasonably be expected to eat at one sitting. The order of the lidocaine and saline was balanced and the study was performed in a double-blind fashion.
The four subjects consumed 15%, 11%, 27% and 33% less on the lidocaine week compared to the placebo week. […] Sibutramine, an obesity drug, gives an 8% weight loss at 6 months and causes a 12% decrease in food intake.

[4] = applied topically; cited from earlier work
[5] = 70 kg adult; cited from earlier work

CC(C)CC(N(C)C)C1(c2ccc(Cl)cc2)CCC1 (stereo not shown) [Sibutramine]
weight loss ([1]; at 6 months): 8%
decrease in food intake ([1]; in vivo): 12%

Cn1c(=O)c2c(ncn2C)n(C)c1=O [caffeine]
effect on energy expenditure ([2]; about 200 mg caffeine orally or nasally added to lidocaine, Example 4): increasing energy expenditure

CCN(CC)CC(=O)Nc1c(C)cccc1C [lidocaine]
reduction in food consumed on lidocaine week compared to placebo week, individual subjects ([3]; 10 mg (0.5 cc) lidocaine in each nostril 20 minutes before meal, BMI less than 25 kg/m2): 15% and 11% and 27% and 33%
overall reduction in food intake ([3]; 10 mg lidocaine in each nostril 20 minutes before meal, p<0.02): 21.5%+10.2%
food consumption with escalating doses ([2]; 2.5, 10 and 25 mg lidocaine per nostril vs saline, BMI 30-40, Example 2): reduction in food consumption
duration of anesthesia [4]: 30 to 45 min
time to peak anesthesia [4]: 2 to 5 min
maximum safe dosage for topical anesthetic [5]: 500 mg

leptin
anorexiant effect ([2]; about 20 mg per day leptin added to lidocaine, Example 5): further anorexiant effect
